This passage reports IC50 results from US10946023B2, “Therapeutically active compounds and their methods of use” (Agios Pharmaceuticals, Inc., priority 2013, dated 2021).

The target in test [1] is IDH1 wt/IDH1 R132H heterodimer (Homo sapiens (Human), UniProt O75874, R132H). Description: IDH1 wt/R132H heterodimer NADPH depletion (diaphorase/resazurin) assay. The format is biochemical. Particulars: read-out: IDH1 wt/R132H NADPH/NADP IC50 not saturated. The protocol:
The following describes the experimental procedures that can be used to obtain data on columns 2 and 4 of Table 4 and column 2 of Table 5.
In the primary reaction, the reduction of α-KG acid to 2-HG is accompanied by a concomitant oxidation of NADPH to NADP. The amount of NADPH remaining at the end of the reaction time is measured in a secondary diaphorase/resazurin reaction in which the NADPH is consumed in a 1:1 molar ratio with the conversion of resazurin to the highly fluorescent resorufin.
The mixture of compound, enzyme, and cofactor is pre-incubated at room temperature for 1 hr prior to the addition of alpha-ketoglutarate. To perform the secondary reaction, 10 uL of 1× buffer containing 36 μg/ml diaphorase and […] resazurin is added to the primary reaction and incubated for a further 5 minutes at 25° C. […] Compounds or compound dilutions are prepared in 100% DMSO concentration and diluted 1:50 into the final reaction. […] IC50s are determined.
IDH1 or IDH2 wildtype (wt) and mutant heterodimers are expressed and purified by methods known in the art. […] Co-expression of IDH1wt-his and IDH1R132C-flag is carried out in sf9 insect cells. […] Cells are disrupted with 4 passes through an M-Y110 Micro fluidizer (Microfluidics) set to 500 psi, and then centrifuged at 22,000 rcf for 20 min at 4° C. […]

The target in test [2] is IDH1-R132 homodimer enzyme (R132H) (Homo sapiens (Human), UniProt O75874, R132H). Description: IDH1 R132H homodimer NADPH depletion assay (Table 4 column 3). It is filed as biochemical. As for the experimental part:
(§1) The following describes the experimental procedures that can be used to obtain data on columns 3 and 6 of Table 4.
(§2) A test compound is prepared as 10 mM stock in DMSO and diluted to 50× final concentration in DMSO, for a 50 μl reaction mixture. IDH enzyme activity converting alpha-ketoglutarate to 2-hydroxyglutaric acid is measured using a NADPH depletion assay. In the assay the remaining cofactor is measured at the end of the reaction with the addition of a catalytic excess of diaphorase and resazurin, to generate a fluorescent signal in proportion to the amount of NADPH remaining. […] The reaction is started with the addition of 10 μl of Substrate Mix ([…], 5 mM alpha-ketoglutarate, in Assay Buffer) and the mixture is incubated for 90 minutes at room temperature.

In another test the target is IDH1 R132C (Homo sapiens (Human), UniProt O75874, R132C). Description: IDH1 R132C homodimer NADPH depletion assay (Table 4 column 6). The format is biochemical. The protocol:
as §1, §2
The concentration of NADPH and alpha-ketoglutarate in the Substrate Buffer is 20 μM and 1 mM, respectively.

In a further test the test system is HT1080 cells. In words: HT1080 cellular assay, 2-HG by LC-MS (IDH1 R132C). The format is cell-based. Particulars: Homo sapiens, HT-1080. As for the experimental part: The following describes the experimental procedures that can be used to obtain data on column 5 of Table 4.
Cells (HT1080 or U87MG) are grown in T125 flasks in DMEM containing 10% FBS, 1× penicillin/streptomycin and 500 ug/mL G418 (present in U87MG cells only). They are harvested by trypsin and seeded into 96 well white bottom plates at a density of 5000 cell/well in 100 ul/well in DMEM with 10% FBS. No cells are placed in columns 1 and 12. Cells are incubated overnight at 37° C. in 5% CO2. The next day test compounds are made up at 2× the final concentration and 100 ul are added to each cell well. The final concentration of DMSO is 0.2% and the DMSO control wells are plated in row G. The plates are then placed in the incubator for 48 hours. At 48 hours, 100 ul of media is removed from each well and analyzed by LC-MS for 2-HG concentrations. The cell plate is placed back in the incubator for another 24 hours. At 72 hours post compound addition, 10 mL/plate of Promega Cell Titer Glo reagent is thawed and mixed. The cell plate is removed from the incubator and allowed to equilibrate to room temperature. Then 100 ul of Promega Cell Titer Glo reagent is added to each well of media. The cell plate is then placed on an orbital shaker for 10 minutes and then allowed to sit at room temperature for 20 minutes. The plate is then read for luminescence with an integration time of 500 ms.
HT1080 cells are maintained in RPMI containing 10% FBS, 1× penicillin/streptomycin. […] The next day compounds are prepared in 100% DMSO and then diluted in media for a final concentration of 0.2% DMSO. Media is removed from the cell plates and 200 μL of the compound dilutions are added to each well. […] The cell plates are then allowed to incubate another 24 hours.

In the next test the target is IDH2 R140Q (Homo sapiens (Human), UniProt P48735, R140Q). In words: IDH2 R140Q cofactor depletion assay (Table 4 column 7). The format is biochemical. From the text:
The following describes the experimental procedures used to obtain data on column 7 of Table 4.
The reaction is terminated by the addition of a second enzyme, diaphorase, and a corresponding substrate, resazurin. Diaphorase reduces resazurin to the highly fluorescent resorufin with the concomitant oxidation of NADPH to NADP, both halting the IDH2 reaction by depleting the available cofactor pool and facilitating quantitation of the amount of cofactor remaining after a specific time period through quantitative production of an easily detected fluorophore.
The test compound is then incubated for one hour at room temperature with the enzyme; before starting the IDH2 reaction with the addition of 10 μl of substrate mix containing 4 μM NADPH and 1.6 mM α-KG in the buffer described above. After a further 16 hours of incubation at room temperature, the reaction is halted and the remaining NADPH measured through conversion of resazurin to resorufin by the addition of 25 μl Stop Mix (36 μg/ml diaphorase enzyme and 60 μM resazurin; in buffer).

Test [3] concerns U87MG pLVX-IDH2 R140Q-neo cells. Description: U87MG pLVX-IDH2 R140Q-neo cell based assay, 2-HG by LC-MS. Particulars: Homo sapiens, U-87 MG.

The structures appear in SMILES notation.

Chain of IDH1 wt/IDH1 R132H heterodimer (O75874 whole entry R132H): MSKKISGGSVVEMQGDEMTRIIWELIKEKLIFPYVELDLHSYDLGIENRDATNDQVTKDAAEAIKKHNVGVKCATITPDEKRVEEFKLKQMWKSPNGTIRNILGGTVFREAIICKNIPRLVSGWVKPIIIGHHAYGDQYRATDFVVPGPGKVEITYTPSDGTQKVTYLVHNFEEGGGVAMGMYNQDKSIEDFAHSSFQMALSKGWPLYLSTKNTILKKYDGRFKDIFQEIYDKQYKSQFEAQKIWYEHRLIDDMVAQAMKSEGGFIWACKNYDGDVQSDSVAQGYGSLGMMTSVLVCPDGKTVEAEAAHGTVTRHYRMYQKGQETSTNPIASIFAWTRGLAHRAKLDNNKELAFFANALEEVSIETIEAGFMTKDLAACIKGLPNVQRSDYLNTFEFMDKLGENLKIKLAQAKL
Chain of IDH1 wt/IDH1 R132H heterodimer (O75874 whole entry, stated change not applied): as the sequence (O75874 whole entry R132H) above, with H132R counted along it
Chain of IDH1-R132 homodimer enzyme (R132H) (O75874 whole entry R132H): as the sequence (O75874 whole entry R132H) above
Chain of IDH2 R140Q (P48735 40-452 R140Q): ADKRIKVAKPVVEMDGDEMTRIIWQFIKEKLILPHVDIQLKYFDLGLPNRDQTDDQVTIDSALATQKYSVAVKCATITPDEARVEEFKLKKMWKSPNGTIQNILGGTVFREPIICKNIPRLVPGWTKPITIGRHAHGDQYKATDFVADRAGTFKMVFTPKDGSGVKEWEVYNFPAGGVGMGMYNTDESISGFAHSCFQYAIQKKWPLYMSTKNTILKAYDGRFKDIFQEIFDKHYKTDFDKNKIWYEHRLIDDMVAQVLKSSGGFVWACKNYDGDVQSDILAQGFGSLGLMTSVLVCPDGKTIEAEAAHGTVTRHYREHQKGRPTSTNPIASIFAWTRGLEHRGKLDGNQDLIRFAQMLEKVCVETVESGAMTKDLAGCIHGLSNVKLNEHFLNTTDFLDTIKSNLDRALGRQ
Chain of IDH1 R132C (O75874 whole entry R132C): as the sequence (O75874 whole entry R132H) above, with H132C counted along it

Regarding `Cc1cccc(-c2nc(NC3CCC(F)(F)CC3)nc(N[C@H](C)C3CC3)n2)n1` [Compound 50], the IC50 in test [1] was less than 50 nM; in test [2] it was less than 50 nM; against IDH1 R132C, 50 to 100 nM.
Consider `N#CC1(c2cc(Nc3nc(N[C@H]4CCC(F)(F)C4)nc(-c4cccc(C(F)(F)F)n4)n3)ccn2)CC1` [Compound 133], for which, in the test on HT1080 cells, the IC50 fell in the range of 100 to 1000 nM.
On the same count and under the same terms, the value for `N#CC1(c2cc(Nc3nc(N[C@@H]4CCC(F)(F)C4)nc(-c4cccc(C(F)(F)F)n4)n3)ccn2)CC1` [Compound 137] was 50 to 100 nM; that for `FC1(F)CCC(Nc2nc(NC3CCC(F)(F)C3)nc(-c3cncc(C(F)(F)F)n3)n2)C1` (centres unmarked) [Compound 138] was less than 50 nM; that for `N#CC1(c2cc(Nc3nc(NC4CCC(F)(F)C4)nc(-c4cccc(C(F)(F)F)n4)n3)ccn2)CC1` (centres unmarked) [Compound 151] was 50 to 100 nM.
Turning to `FC1(F)CC[C@H](Nc2nc(Nc3ccnc(C(F)(F)F)c3)nc(-c3cccc(C(F)(F)F)n3)n2)C1` [Compound 158], in the test with HT1080 cells, the IC50 lay within 100 to 1000 nM.
The same measure, in the same setting: the value for `FC1(F)CC[C@@H](Nc2nc(Nc3ccnc(C(F)(F)F)c3)nc(-c3cccc(C(F)(F)F)n3)n2)C1` [Compound 172] was 50 to 100 nM; that for `FC1(F)CCC(Nc2nc(Nc3ccnc(C(F)(F)F)c3)nc(-n3ccc(C(F)(F)F)n3)n2)C1` (centres unmarked) [Compound 173] was 50 to 100 nM; that for `N#CC1(c2cc(Nc3nc(N[C@H]4CCC(F)(F)C4)nc(-n4ccc(C(F)(F)F)n4)n3)ccn2)CC1` [Compound 174] was 50 to 100 nM.
Consider `CC(Nc1nc(Nc2ccnc(C(F)(F)F)c2)nc(-n2ccc(C(F)(F)F)n2)n1)C(F)(F)F` (centres unmarked) [Compound 177], for which the IC50 with HT1080 cells lay within 50 to 100 nM.
Still for that read-out and setting: to `FC1(F)CCC(Nc2nc(Nc3ccnc(C(F)(F)F)c3)nc(-c3cccc(C(F)(F)F)n3)n2)C1` (centres unmarked) [Compound 178] belongs 100 to 1000 nM.
Same read-out and setting: to `N#CC1(c2cc(Nc3nc(NC4CCC(F)(F)C4)nc(-n4ccc(C(F)(F)F)n4)n3)ccn2)CC1` (centres unmarked) [Compound 185] belongs 50 to 100 nM; to `FC1(F)CC(Nc2nc(Nc3ccnc(C(F)(F)F)c3)nc(-c3cccc(C(F)(F)F)n3)n2)C1` [Compound 190], 100 to 1000 nM.
Take `CC(C)(O)CNc1nc(Nc2ccnc(C(F)(F)F)c2)nc(-c2cccc(C(F)(F)F)n2)n1` [Compound 288]: the IC50 (in test [1]; against IDH2 R140Q; in test [3]) was 100 to 1000 nM throughout.
With `N#CC1(c2cc(Nc3nc(N[C@@H]4CCC(F)(F)C4)nc(-n4ccc(C(F)(F)F)n4)n3)ccn2)CC1` [Compound 350], the IC50 in the test with HT1080 cells was 50 to 100 nM.
The same measure, in the same setting: the value for `FC1(F)CC[C@H](Nc2nc(Nc3ccnc(C(F)(F)F)c3)nc(-n3ccc(C(F)(F)F)n3)n2)C1` [Compound 393] was 100 to 1000 nM; that for `FC1(F)CC[C@@H](Nc2nc(N[C@H]3CCC(F)(F)C3)nc(-c3cncc(C(F)(F)F)n3)n2)C1` [Compound 399] was less than 50 nM.
On the same count and under the same terms, the value for `FC1(F)CC[C@H](Nc2nc(N[C@H]3CCC(F)(F)C3)nc(-c3cncc(C(F)(F)F)n3)n2)C1` [Compound 406] was less than 50 nM; that for `FC1(F)CC[C@@H](Nc2nc(N[C@@H]3CCC(F)(F)C3)nc(-c3cncc(C(F)(F)F)n3)n2)C1` [Compound 410] was less than 50 nM.
